Results taken from ChEMBL document CHEMBL3860068, “Class II Phosphoinositide 3-Kinases as Novel Drug Targets” (J Med Chem, 2017).
Blank lines part the entries; values can stand above or below the molecule they belong to.

How the values were obtained:
[1] = biological target: T1, Phosphatidylinositol 3-kinase catalytic subunit type 3 (Homo sapiens, UniProt Q8NEB9); assay: Inhibition of N-terminal tagged full-length human VPS34 by luciferase-luciferin-coupled chemiluminescence assay
[2] = biological target: T2, DNA-dependent protein kinase catalytic subunit (Homo sapiens, UniProt P78527); assay: Inhibition of human DNA-PK by luciferase-luciferin-coupled chemiluminescence assay
[3] = biological target: T3, Phosphatidylinositol 4-phosphate 3-kinase C2 domain-containing subunit alpha (Homo sapiens, UniProt O00443); assay: Inhibition of PI3KC2alpha (unknown origin)
T3 sequence (O00443 whole entry, the tested form may be a part): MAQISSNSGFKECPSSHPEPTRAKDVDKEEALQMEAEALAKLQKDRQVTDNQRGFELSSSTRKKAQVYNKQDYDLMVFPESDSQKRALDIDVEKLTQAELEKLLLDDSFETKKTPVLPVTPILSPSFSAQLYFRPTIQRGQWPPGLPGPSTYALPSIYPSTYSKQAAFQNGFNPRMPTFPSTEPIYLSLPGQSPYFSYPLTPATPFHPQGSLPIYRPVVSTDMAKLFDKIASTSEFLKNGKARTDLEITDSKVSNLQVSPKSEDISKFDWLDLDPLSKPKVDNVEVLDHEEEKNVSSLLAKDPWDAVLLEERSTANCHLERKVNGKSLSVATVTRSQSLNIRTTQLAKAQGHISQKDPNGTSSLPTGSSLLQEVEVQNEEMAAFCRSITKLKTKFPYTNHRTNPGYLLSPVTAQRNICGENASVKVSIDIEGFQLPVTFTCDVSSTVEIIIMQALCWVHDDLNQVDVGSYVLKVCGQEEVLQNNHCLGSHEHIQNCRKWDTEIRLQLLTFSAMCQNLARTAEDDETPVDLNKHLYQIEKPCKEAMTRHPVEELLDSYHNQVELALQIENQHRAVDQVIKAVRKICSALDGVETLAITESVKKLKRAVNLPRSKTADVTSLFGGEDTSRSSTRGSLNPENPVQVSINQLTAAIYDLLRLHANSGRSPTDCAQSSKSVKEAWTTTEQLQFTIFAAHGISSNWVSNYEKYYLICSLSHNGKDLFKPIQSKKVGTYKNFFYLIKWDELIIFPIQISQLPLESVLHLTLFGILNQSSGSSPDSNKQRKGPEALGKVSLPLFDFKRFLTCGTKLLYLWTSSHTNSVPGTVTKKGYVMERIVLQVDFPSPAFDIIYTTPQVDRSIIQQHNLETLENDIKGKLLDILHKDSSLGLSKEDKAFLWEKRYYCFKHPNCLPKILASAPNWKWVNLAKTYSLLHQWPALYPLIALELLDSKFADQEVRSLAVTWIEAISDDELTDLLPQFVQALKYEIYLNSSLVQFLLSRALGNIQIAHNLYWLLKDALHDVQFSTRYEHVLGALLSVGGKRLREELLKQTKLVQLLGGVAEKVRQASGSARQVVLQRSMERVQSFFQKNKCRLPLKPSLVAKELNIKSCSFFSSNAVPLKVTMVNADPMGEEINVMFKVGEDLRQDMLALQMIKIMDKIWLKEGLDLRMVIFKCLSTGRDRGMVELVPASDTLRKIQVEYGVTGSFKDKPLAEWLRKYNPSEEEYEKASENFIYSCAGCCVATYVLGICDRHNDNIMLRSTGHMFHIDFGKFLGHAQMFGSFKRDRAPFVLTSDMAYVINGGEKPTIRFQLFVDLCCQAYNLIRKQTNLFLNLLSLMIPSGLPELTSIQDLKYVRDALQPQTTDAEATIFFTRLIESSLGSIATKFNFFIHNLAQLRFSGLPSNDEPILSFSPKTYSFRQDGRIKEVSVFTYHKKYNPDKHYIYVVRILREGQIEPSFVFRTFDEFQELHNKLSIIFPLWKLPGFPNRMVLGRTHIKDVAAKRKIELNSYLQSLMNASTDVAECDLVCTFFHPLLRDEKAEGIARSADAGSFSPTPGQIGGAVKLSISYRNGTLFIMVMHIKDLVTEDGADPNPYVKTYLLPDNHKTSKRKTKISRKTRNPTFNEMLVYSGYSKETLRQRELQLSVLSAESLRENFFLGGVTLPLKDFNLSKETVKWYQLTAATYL

[4] = Inhibition of class 4 PI3K (unknown origin); design: species or system Homo sapiens
[5] = Inhibition of class 1 PI3K (unknown origin); design: species or system Homo sapiens
[6] = biological target: T1, Phosphatidylinositol 3-kinase catalytic subunit type 3; assay: Inhibition of full length human recombinant VPS34 (unknown origin) using phosphatidylinositol and gamma-32P-ATP incubated for 20 mins by TLC assay or high-throughput membrane capture assay
[7] = biological target: T4, Phosphatidylinositol 3-kinase C2 domain-containing subunit gamma (Homo sapiens, UniProt O75747); assay: Inhibition of PI3KC2gamma (unknown origin)
T4 sequence (O75747 whole entry): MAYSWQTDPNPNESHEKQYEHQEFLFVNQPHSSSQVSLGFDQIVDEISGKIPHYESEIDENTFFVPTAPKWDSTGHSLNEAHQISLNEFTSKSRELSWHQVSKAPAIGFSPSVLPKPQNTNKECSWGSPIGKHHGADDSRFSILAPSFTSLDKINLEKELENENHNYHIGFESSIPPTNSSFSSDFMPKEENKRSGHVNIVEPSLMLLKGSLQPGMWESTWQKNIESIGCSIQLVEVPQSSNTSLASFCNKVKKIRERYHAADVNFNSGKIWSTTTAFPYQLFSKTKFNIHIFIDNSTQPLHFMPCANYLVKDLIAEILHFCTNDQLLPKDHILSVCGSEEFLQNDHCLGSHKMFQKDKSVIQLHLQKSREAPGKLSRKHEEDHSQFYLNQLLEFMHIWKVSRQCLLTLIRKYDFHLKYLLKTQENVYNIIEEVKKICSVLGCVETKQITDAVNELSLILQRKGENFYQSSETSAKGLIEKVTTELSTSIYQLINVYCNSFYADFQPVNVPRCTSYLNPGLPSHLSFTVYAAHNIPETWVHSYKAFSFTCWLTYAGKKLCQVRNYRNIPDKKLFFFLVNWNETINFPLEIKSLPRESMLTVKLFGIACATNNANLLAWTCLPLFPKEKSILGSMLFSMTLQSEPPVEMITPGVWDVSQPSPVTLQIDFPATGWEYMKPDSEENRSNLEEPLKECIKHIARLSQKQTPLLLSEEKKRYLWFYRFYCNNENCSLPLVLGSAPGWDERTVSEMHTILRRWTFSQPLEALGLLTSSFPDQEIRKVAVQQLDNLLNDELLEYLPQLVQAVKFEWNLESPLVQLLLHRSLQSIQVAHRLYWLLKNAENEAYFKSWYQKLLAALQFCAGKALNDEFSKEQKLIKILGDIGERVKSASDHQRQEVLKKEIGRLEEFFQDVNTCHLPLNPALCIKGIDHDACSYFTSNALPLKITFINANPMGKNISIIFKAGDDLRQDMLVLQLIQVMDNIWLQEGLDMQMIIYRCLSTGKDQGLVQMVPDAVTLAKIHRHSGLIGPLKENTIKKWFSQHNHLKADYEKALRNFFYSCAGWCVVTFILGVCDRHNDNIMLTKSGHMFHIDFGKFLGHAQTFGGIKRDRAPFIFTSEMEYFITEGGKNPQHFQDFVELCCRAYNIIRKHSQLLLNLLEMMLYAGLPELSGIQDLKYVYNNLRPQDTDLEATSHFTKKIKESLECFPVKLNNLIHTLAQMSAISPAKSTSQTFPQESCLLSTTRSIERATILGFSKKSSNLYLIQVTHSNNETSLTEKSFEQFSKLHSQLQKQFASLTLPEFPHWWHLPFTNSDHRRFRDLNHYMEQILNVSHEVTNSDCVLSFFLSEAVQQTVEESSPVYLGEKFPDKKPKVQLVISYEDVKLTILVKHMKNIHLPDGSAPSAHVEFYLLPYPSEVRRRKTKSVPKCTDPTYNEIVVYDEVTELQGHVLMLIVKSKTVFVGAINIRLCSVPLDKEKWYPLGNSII

[8] = biological target: T5, Phosphatidylinositol 4-phosphate 3-kinase C2 domain-containing subunit beta (Homo sapiens, UniProt O00750); assay: Inhibition of PI3KC2beta (unknown origin)
T5 sequence (O00750 whole entry, the tested form may be a part, canonical isoform): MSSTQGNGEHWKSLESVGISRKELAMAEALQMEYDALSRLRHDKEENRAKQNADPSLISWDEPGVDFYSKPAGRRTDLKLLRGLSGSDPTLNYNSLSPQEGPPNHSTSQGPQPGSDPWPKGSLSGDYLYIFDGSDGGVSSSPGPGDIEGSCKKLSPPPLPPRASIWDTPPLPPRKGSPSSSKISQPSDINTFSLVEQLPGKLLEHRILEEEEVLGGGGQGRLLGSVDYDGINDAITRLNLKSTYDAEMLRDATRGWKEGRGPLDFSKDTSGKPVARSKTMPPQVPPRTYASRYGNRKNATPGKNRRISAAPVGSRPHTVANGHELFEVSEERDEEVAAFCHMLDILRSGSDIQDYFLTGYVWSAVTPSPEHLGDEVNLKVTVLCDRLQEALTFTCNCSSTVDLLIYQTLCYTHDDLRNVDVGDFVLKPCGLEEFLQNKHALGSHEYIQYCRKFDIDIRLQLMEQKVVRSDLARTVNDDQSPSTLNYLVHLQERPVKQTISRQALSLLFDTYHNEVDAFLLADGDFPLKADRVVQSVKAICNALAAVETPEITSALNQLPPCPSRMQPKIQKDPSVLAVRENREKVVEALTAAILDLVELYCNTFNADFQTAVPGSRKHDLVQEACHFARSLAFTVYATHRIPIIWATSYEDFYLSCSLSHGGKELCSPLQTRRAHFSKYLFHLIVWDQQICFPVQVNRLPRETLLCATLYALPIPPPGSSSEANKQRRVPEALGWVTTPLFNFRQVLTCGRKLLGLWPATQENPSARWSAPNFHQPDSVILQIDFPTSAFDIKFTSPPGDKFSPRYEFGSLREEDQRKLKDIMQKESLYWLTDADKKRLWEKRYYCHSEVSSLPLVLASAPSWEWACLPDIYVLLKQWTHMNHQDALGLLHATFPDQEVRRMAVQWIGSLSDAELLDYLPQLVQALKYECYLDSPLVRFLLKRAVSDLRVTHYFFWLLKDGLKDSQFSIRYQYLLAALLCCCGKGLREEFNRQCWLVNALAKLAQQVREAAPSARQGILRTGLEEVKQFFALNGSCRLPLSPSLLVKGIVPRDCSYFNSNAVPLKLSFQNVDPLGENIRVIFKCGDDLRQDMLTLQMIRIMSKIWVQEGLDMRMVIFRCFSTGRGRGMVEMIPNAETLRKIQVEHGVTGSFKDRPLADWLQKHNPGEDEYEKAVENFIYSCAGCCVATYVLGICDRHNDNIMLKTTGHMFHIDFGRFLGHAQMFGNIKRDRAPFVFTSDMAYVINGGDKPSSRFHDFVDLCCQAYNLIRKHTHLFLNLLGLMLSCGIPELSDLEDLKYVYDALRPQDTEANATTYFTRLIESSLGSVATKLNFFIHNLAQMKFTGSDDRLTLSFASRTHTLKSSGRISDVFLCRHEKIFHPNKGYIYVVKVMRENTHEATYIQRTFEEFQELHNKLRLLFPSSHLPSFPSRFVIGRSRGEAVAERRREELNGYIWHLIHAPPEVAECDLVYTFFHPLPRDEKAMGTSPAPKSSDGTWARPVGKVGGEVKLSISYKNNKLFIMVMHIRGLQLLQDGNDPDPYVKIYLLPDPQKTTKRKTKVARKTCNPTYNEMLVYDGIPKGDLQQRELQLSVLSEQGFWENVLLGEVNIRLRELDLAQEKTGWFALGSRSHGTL

[9] = biological target: Phosphatidylinositol 4,5-bisphosphate 3-kinase catalytic subunit gamma isoform (Homo sapiens, UniProt P48736); assay: Inhibition of PI3Kgamma (unknown origin)
[10] = biological target: T5, Phosphatidylinositol 4-phosphate 3-kinase C2 domain-containing subunit beta; assay: Inhibition of PI3KC2beta (unknown origin) expressed in HEK293 cells using phosphatidylinositol and gamma-32P-ATP incubated for 20 mins by TLC assay or high-throughput membrane capture assay; type: cell-based
[11] = biological target: T2, DNA-dependent protein kinase catalytic subunit; assay: Inhibition of DNA-PK (unknown origin)
[12] = biological target: T3, Phosphatidylinositol 4-phosphate 3-kinase C2 domain-containing subunit alpha; assay: Inhibition of PI3KC2alpha (unknown origin) expressed in HEK293 cells using phosphatidylinositol and gamma-32P-ATP incubated for 20 mins by TLC assay or high-throughput membrane capture assay; type: cell-based
[13] = biological target: T1, Phosphatidylinositol 3-kinase catalytic subunit type 3; assay: Inhibition of human recombinant Vps34 using substrate PI incubated for 1 hr by Adapta kinase assay
[14] = biological target: T5, Phosphatidylinositol 4-phosphate 3-kinase C2 domain-containing subunit beta; assay: Inhibition of human recombinant PI3KC2beta using substrate PI incubated for 1 hr by Adapta kinase assay
[15] = biological target: T3, Phosphatidylinositol 4-phosphate 3-kinase C2 domain-containing subunit alpha; assay: Inhibition of human recombinant PI3KC2alpha using substrate PI incubated for 1 hr by Adapta kinase assay

T1 sequence (Q8NEB9 whole entry): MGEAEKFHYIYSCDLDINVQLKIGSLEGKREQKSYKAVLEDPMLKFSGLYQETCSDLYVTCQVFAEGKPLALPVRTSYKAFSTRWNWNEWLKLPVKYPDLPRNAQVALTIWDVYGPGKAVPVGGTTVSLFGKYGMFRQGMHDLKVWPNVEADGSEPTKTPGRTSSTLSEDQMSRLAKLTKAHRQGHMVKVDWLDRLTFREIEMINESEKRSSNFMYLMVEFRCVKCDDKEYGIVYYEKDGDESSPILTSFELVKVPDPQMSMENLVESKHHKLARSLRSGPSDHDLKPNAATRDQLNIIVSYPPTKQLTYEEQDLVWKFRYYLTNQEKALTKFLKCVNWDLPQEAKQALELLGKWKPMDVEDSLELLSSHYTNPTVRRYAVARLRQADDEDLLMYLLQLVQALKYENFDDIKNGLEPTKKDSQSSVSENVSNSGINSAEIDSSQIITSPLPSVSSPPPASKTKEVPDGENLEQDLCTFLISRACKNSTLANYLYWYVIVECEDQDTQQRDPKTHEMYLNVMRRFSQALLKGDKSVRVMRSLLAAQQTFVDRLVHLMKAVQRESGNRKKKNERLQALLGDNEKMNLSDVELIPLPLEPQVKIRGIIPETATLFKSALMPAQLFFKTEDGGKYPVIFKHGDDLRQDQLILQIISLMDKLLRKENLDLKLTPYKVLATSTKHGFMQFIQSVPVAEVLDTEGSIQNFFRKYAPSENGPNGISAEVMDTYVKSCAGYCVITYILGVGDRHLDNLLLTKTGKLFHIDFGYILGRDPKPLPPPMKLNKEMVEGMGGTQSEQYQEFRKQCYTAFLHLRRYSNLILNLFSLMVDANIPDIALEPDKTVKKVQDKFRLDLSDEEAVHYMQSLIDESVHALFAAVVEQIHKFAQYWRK

Structure (SMILES): CS(=O)(=O)N1CCN(Cc2cc3nc(-c4cccc5[nH]ncc45)nc(N4CCOCC4)c3s2)CC1 [PICTILISIB]
IC50 [3]: > 10 µM

Structure (SMILES): COc1ccc2c(c1OC)N=C(NC(=O)c1cccnc1)N1CCN=C21
IC50 [6]: 0.83 µM

Structure (SMILES): CC(=O)Nc1nc(C)c(-c2ccc(Cl)c(S(=O)(=O)NCCO)c2)s1
IC50 [10]: 14 µM | IC50 [6]: 0.32 µM

Structure (SMILES): O=C1NC(=S)S/C1=C\c1ccc2c(c1)N(Cc1ccc(F)c(Cl)c1)C(=O)CO2
IC50 [10]: 0.37 µM | IC50 [11]: 1.5 µM | IC50 [6]: 10 µM | IC50 [12]: 0.14 µM

Structure (SMILES): Cn1c(=O)n(-c2ccc(C(C)(C)C#N)cc2)c2c3cc(-c4cnc5ccccc5c4)ccc3ncc21 [DACTOLISIB]
IC50 [13]: 0.45 µM | IC50 [14]: 0.044 µM | IC50 [15]: 0.034 µM

Structure (SMILES): CC(C)(O)CNc1ncc(-c2ccnc(Nc3ccnc(Cl)c3)n2)c(CC2CC2)n1
IC50 [7]: > 10 µM | IC50 [8]: > 10 µM | IC50 [4]: > 1 µM | IC50 [5]: > 10 µM | IC50 [3]: > 10 µM

Structure (SMILES): CC(=O)Nc1ccc2nc(-c3cccc(NS(=O)(=O)c4ccccc4)c3)nc(N3CCOCC3)c2c1
IC50 [4]: > 100 µM | IC50 [5]: > 10 µM

Structure (SMILES): FC(F)c1nc2ccccc2n1-c1nc(N2CCOCC2)nc(N2CCOCC2)n1 [ZSTK-474]
IC50 [13]: > 100 µM

The next lines start with the values.

IC50 [1]: 7 µM | IC50 [2]: 4.8 µM
Structure (SMILES): COc1ccc(Cl)c(Nc2nc3ccccc3nc2NS(=O)(=O)c2cccc(NC(=O)C(C)(C)N)c2)c1 [PILARALISIB]

IC50 [4]: > 100 µM | IC50 [5]: > 10 µM
Structure (SMILES): CC(=O)Nc1ccc2nc(-c3cccc(NS(=O)(=O)c4ccc5ccccc5c4)c3)nc(N3CCOCC3)c2c1

IC50 [7]: > 10 µM | IC50 [8]: > 10 µM | IC50 [4]: > 10 µM | IC50 [5]: > 10 µM | IC50 [3]: > 10 µM
Structure (SMILES): C[C@@H]1COCCN1c1cc(=O)n2c(n1)N(Cc1cncc(Cl)c1)[C@H](C(F)(F)F)CC2

IC50 [4]: > 9.1 µM | IC50 [9]: 3 µM
Structure (SMILES): Nc1ncc(-c2ccnc(Nc3ccncc3)n2)c(CC2CC2)n1
